Reference: US20220347171A1, “TREATMENT OF PRURIGO NODULARIS” (TREVI THERAPEUTICS, INC., priority 2016, published 2022)
Structures can show the parent of a compound that is named as a salt.

Columns and labels:
[1] = system: prurigo nodularis patients; assay: Example 2 trial: average itch intensity NRS score; type: in vivo, human; settings: 180 mg BID; end of treatment; 95% CI −2.764, −0.134; P=0.031
Description: This clinical study was a double-blind, placebo-controlled trial in which prurigo nodularis patients were randomized in a 1:1:1 ratio to nalbuphine ER tablets to a target dose of 90 mg twice daily (BID), nalbuphine HCl ER tablets 180 mg BID, or placebo tablets BID. Use of nonsedating rescue antihistamine medications (non-first generation H1-antihistamines [Simons F E. Advances in H1-antihistamines. N Engl J Med. 2004; 351(21):2203-17.]) were allowed in the study but their use was recorded. Cleansing emollients were allowed for hygiene purposes provided there were no active substances (such as menthol or urea) contained in the lotion. A placebo comparator was chosen because there are no approved treatments for prurigo nodularis in the United States or Europe or an established standard of care that could serve as an active control.
(1) The proportion of patients with at least a 30% reduction in the 7-day average daily diary-reported NRS itch intensity from baseline to the evaluation visit (Week 10). (2) The proportion of patients with at least a 50% reduction in the 7-day average daily diary-reported NRS itch intensity from baseline to the evaluation visit (Week 10). […] (5) Prurigo nodularis skin lesions, as quantitatively measured by the Prurigo Activity Score (PAS) recorded at baseline and during evaluation visit (Week 10). […]

[2] = system: prurigo nodularis patients; assay: TR03ext (Example 3), titrated 30 mg QD to 180 mg BID: itchy Verbal Rating Scale (VRS); type: in vivo, human; settings: for VRS Itch Visit Mean (SD): Baseline 2.7 (0.8)
Source text: This clinical study was a Phase 2 Open Label Extension Study (clinical study TR03ext) of the randomized, double-blind, 3-parallel arm, placebo controlled dose ranging study described in Example 2. All those subjects who were randomized, and then completed Example 2 study, were eligible to participate in the Extension Study.
The primary endpoint was a description of the overall incidence and nature of Treatment-Emergent AEs (TEAES) during weeks 5-50 of the study. Exploratory efficacy endpoints included Change from Baseline patient reported outcome measures of Worst itch NRS, itchy VRS and ItchyQoL, by Treatment Period study visit and Baseline NRS score. There was also an assessment of any potential skin lesion changes over time using the metrics of the PAS.
Of the 63 patients that were randomized to the study of Example 2, 36 subjects who enrolled into Extension Study entered the Treatment Period of the study and were exposed to nalbuphine HCl ER tablet administration and are the basis of the study safety population analysis.
Patients in Extension Study were titrated over a dose range of 30 mg QD to 180 mg BID based on tolerability. The selected dose range was based on Example 2 study whereby patients were titrated from a 30 mg QD dose either to 30 mg BID, 60 mg BID, 90 mg BID, 120 mg BID or a 180 mg BID dose. The highest dose proposed was 180 mg BID (360 mg daily dose), and was well below the highest recommended daily treatment of 160 mg IV (equivalent to 960 mg oral) for the current marketed parenteral administered product.
The study duration for each patient was up to 52 weeks, with up to 50 weeks on study drug. The Extension Study consisted of a Treatment Period (that was followed by a Washout Safety Follow-up Period) and an Observation Period. Patients either entered directly into a drug Treatment Period (NRS >5) or a no-drug Observation Period (NRS ≤5) based on their reported NRS scores on the first Visit (Visit 1a). For up to 12 Extended Screening weeks, patients in the no-drug Observation Period could have also transitioned into the drug Treatment Period if their NRS increased to NRS >5. All patients entering the Treatment Period, whether immediately upon study entry or following a period of time in the Observation Period, were titrated to a dose ranging between 30 mg up to 180 mg BID, the highest dose tested in Example 2.

[3] = Patients With At Least 6 Months of Treatment N = 18
[4] = Patients With At Least 9 Months of Treatment N = 15

With Oc1ccc2c3c1OC1[C@@H](O)CC[C@@]4(O)[C@@H](C2)N(CC2CCC2)CC[C@]314 (stereo partly drawn) [Nalbuphine, 17-(cyclobutylmethyl)-4,5α-epoxymorphinian-3, 6α, 14-triol, hydrochloride] the “LS mean treatment difference in change from baseline average itch intensity NRS score versus placebo” value [1] was −1.45, the “VRS Itch Improvement Category 1 Grade Better, baseline to last observed value, patients (%)” value ([2]; All Patients N = 36) was 16 (44.4%) and the “VRS Itch Improvement Category 1 Grade Worse, baseline to last observed value, patients (%)” value ([2]; All Patients N = 36) was 0. For the same compound, the “VRS Itch Improvement Category 2-4 Grades Worse, baseline to last observed value, patients (%)” value ([2]; All Patients N = 36) was 0, the “VRS Itch Improvement Category 2 Grades Better, baseline to last observed value, patients (%)” value ([2]; All Patients N = 36) was 9 (25.0%) and the “VRS Itch Improvement Category 3 Grades Better, baseline to last observed value, patients (%)” value ([2]; All Patients N = 36) was 1 (2.8%). The “VRS Itch Improvement Category 4 Grades Better, baseline to last observed value, patients (%)” value ([2]; All Patients N = 36) was 0, the “VRS Itch Improvement Category No Change, baseline to last observed value, patients (%)” value (from here on “VRS Itch Improvement Category No Change … (%)”) ([2]; All Patients N = 36) was 3 (8.3%) and the “VRS Itch Improvement Category 1 Grade Better, baseline to last observed value, patients (%)” value ([2]; Completers N = 14) was 5 (35.7%). The “VRS Itch Improvement Category 1 Grade Worse, baseline to last observed value, patients (%)” value ([2]; Completers N = 14) was 0, the “VRS Itch Improvement Category 2-4 Grades Worse, baseline to last observed value, patients (%)” value ([2]; Completers N = 14) was 0 and the “VRS Itch Improvement Category 2 Grades Better, baseline to last observed value, patients (%)” value ([2]; Completers N = 14) was 7 (50.0%). The “VRS Itch Improvement Category 3 Grades Better, baseline to last observed value, patients (%)” value ([2]; Completers N = 14) was 0, the “VRS Itch Improvement Category 4 Grades Better, baseline to last observed value, patients (%)” value ([2]; Completers N = 14) was 0 and the “VRS Itch Improvement Category No Change … (%)” value ([2]; Completers N = 14) was 2 (14.3%). For the same compound, the “VRS Itch Improvement Category 1 Grade Better, baseline to last observed value, patients (%)” value [2, 3] was 6 (33.3%), the “VRS Itch Improvement Category 1 Grade Worse, baseline to last observed value, patients (%)” value [2, 3] was 0 and the “VRS Itch Improvement Category 2-4 Grades Worse, baseline to last observed value, patients (%)” value [2, 3] was 0. The “VRS Itch Improvement Category 2 Grades Better, baseline to last observed value, patients (%)” value [2, 3] was 9 (50.0%), the “VRS Itch Improvement Category 3 Grades Better, baseline to last observed value, patients (%)” value [2, 3] was 1 (5.6%) and the “VRS Itch Improvement Category 4 Grades Better, baseline to last observed value, patients (%)” value [2, 3] was 0. The “VRS Itch Improvement Category No Change … (%)” value [2, 3] was 2 (11.1%), the “VRS Itch Improvement Category 1 Grade Better, baseline to last observed value, patients (%)” value [2, 4] was 6 (40.0%) and the “VRS Itch Improvement Category 1 Grade Worse, baseline to last observed value, patients (%)” value [2, 4] was 0. For the same compound, the “VRS Itch Improvement Category 2-4 Grades Worse, baseline to last observed value, patients (%)” value [2, 4] was 0, the “VRS Itch Improvement Category 2 Grades Better, baseline to last observed value, patients (%)” value [2, 4] was 7 (46.7%) and the “VRS Itch Improvement Category 3 Grades Better, baseline to last observed value, patients (%)” value [2, 4] was 0. The “VRS Itch Improvement Category 4 Grades Better, baseline to last observed value, patients (%)” value [2, 4] was 0, the “VRS Itch Improvement Category No Change … (%)” value [2, 4] was 2 (13.3%) and the “VRS Itch Mean (SD) Change from Baseline” value ([2]; Study Week 3, N=34) was −0.6 (0.9). The “VRS Itch Visit Mean (SD)” value ([2]; Study Week 3, N=34) was 2.1 (1.1), the “VRS Itch Mean (SD) Change from Baseline” value ([2]; Study Week 5, N=33) was −0.9 (1.0) and the “VRS Itch Visit Mean (SD)” value ([2]; Study Week 5, N=33) was 1.8 (1.0). The “VRS Itch Mean (SD) Change from Baseline” value ([2]; Study Week 9, N=30) was −0.9 (0.8), the “VRS Itch Visit Mean (SD)” value ([2]; Study Week 9, N=30) was 1.7 (0.9) and the “VRS Itch Mean (SD) Change from Baseline” value ([2]; Study Week 13, N=25) was −1.1 (0.8). For the same compound, the “VRS Itch Visit Mean (SD)” value ([2]; Study Week 13, N=25) was 1.5 (0.8), the “VRS Itch Mean (SD) Change from Baseline” value ([2]; Study Week 17, N=25) was −1.2 (1.2) and the “VRS Itch Visit Mean (SD)” value ([2]; Study Week 17, N=25) was 1.4 (1.0). For the same compound, the “VRS Itch Mean (SD) Change from Baseline” value ([2]; Study Week 21, N=22) was −1.2 (0.8), the “VRS Itch Visit Mean (SD)” value ([2]; Study Week 21, N=22) was 1.4 (0.7) and the “VRS Itch Mean (SD) Change from Baseline” value ([2]; Study Week 26, N=21) was −1.2 (0.9). For the same compound, the “VRS Itch Visit Mean (SD)” value ([2]; Study Week 26, N=21) was 1.4 (0.9), the “VRS Itch Mean (SD) Change from Baseline” value ([2]; Study Week 30, N=20) was −1.5 (0.8) and the “VRS Itch Visit Mean (SD)” value ([2]; Study Week 30, N=20) was 1.1 (0.8). For the same compound, the “VRS Itch Mean (SD) Change from Baseline” value ([2]; Study Week 34, N=18) was −1.2 (0.8), the “VRS Itch Visit Mean (SD)” value ([2]; Study Week 34, N=18) was 1.4 (0.6) and the “VRS Itch Mean (SD) Change from Baseline” value ([2]; Study Week 38, N=17) was −1.2 (0.7). The “VRS Itch Visit Mean (SD)” value ([2]; Study Week 38, N=17) was 1.4 (0.6), the “VRS Itch Mean (SD) Change from Baseline” value ([2]; Study Week 42, N=17) was −1.4 (0.6) and the “VRS Itch Visit Mean (SD)” value ([2]; Study Week 42, N=17) was 1.2 (0.6). For the same compound, the “VRS Itch Mean (SD) Change from Baseline” value ([2]; Study Week 46, N=17) was −1.4 (0.6), the “VRS Itch Visit Mean (SD)” value ([2]; Study Week 46, N=17) was 1.2 (0.7) and the “VRS Itch Mean (SD) Change from Baseline” value ([2]; Study Week 50, N=15) was −1.5 (0.7). For the same compound, the “VRS Itch Visit Mean (SD)” value ([2]; Study Week 50, N=15) was 1.1 (0.6).
